Data taken from BigSolDB 2.1.

C[C@]12CCC3=C4CCC(=O)C=C4CC[C@H]3[C@@H]1CC[C@@]2(O)CC#N
solubility (mole fraction)
Details | 273.15 K | 278.15 K | 283.15 K | 288.15 K | 293.15 K | 298.15 K | 303.15 K | 308.15 K | 313.15 K | 318.15 K
in DMF | 0.0262 | 0.0275 | 0.0293 | 0.0303 | 0.0318 | 0.0333 | 0.0343 | 0.0354 | 0.0364 | 0.0374
in MTBE | 0.000258 | 0.000281 | 0.000302 | 0.000327 | 0.000355 | 0.000384 | 0.000416 | 0.00045 | 0.000489 | 0.000531
in THF | 0.0106 | 0.0115 | 0.0125 | 0.0138 | 0.0148 | 0.0158 | 0.0172 | 0.0182 | 0.0192 | 0.0201
in acetone | 0.00464 | 0.00495 | 0.00536 | 0.00576 | 0.00616 | 0.00667 | 0.00717 | 0.00777 | 0.00828 | 0.00899
in acetonitrile | 0.00125 | 0.00149 | 0.00172 | 0.00202 | 0.00232 | 0.00273 | 0.00313 | 0.00363 | 0.00414 | 0.00475
in ethanol | 0.000981 | 0.00122 | 0.00152 | 0.00189 | 0.00233 | 0.00287 | 0.00353 | 0.00434 | 0.00524 | 0.00637
in ethyl acetate | 0.00145 | 0.00167 | 0.00192 | 0.00215 | 0.00242 | 0.00273 | 0.00304 | 0.00338 | 0.00374 | 0.00414
in isopropanol | 0.000738 | 0.000899 | 0.0011 | 0.00131 | 0.00158 | 0.00192 | 0.00227 | 0.00273 | 0.00323 | 0.00378
in methanol | 0.00182 | 0.00209 | 0.00235 | 0.00269 | 0.00303 | 0.00344 | 0.00384 | 0.00434 | 0.00493 | 0.00553
in n-propanol | 0.00136 | 0.00161 | 0.00187 | 0.00219 | 0.00256 | 0.00298 | 0.00345 | 0.00399 | 0.00462 | 0.00532
in water | 5.99e-06 | 6.47e-06 | 6.99e-06 | 7.58e-06 | 8.19e-06 | 8.88e-06 | 9.62e-06 | 1.04e-05 | 1.13e-05 | 1.23e-05
